Experimental data reported in patent publication EP0314528B1, “Article for the controlled release and delivery of substances to animal tissues” (HERCON LABORATORIES CORPORATION, priority 1987, dated 1989).

Columns and labels:
guinea pig skin = conditions: compared with indomethacin; cited from earlier work
rat footpad = conditions: applied topically to rat footpad; cited from earlier work
cyclooxygenase = conditions: cited from earlier work
prostaglandin E2 = conditions: cited from earlier work
leukotriene C4 = conditions: cited from earlier work
human subject [1] = assay: Contact irritant dermatitis to RO 22-1327 patches with incorporated fluocinonide; assay type: in vivo; conditions: 1.0% fluocinonide incorporated into the RO 22-1327 patch
Excerpt: (§1) The Grading System for this example is as follows: +/- faint, or spotty, pink color within test site; 1 uniform pink color covering all of test site; 2 uniform pink to red color covering all of test site; 3 uniform bright red color covering all of test site; 4 uniform bright red color covering all of test side with edema, blisters, or weeping.
Objective - To block the contact irritant dermatitis observed following application of RO 22-1327 patches to the skin through the incorporation of fluocinonide in the patch. Materials - One formulation of the antihypertensive drug RO 22-1327 was used, in which either 0%, 0.1%. 1.0% or 5% fluocinonide was incorporated. Methods - Four patches containing RO 22-1327 and fluocinonide at either 0%, 0.1%, 1.0%. or 5.0% were applied to the upper arms (two per arm) of a single human subject not previously exposed to this drug. The patches were removed at 8 hours and the sites observed for signs of dermatitis immediately and 16 hours later. In a second test. one RO 22-1327 patch containing 1.0% fluocinonide was applied to the upper arm of the same human subject as above and removed after 24 hours. The site was examined immediately for signs of dermatitis.

[2] = test system: human subject previously sensitized to fluphenazine; assay: Contact allergic dermatitis to fluphenazine patches with incorporated fluocinonide, sensitized subject; assay type: in vivo; conditions: 1% or 5% fluocinonide incorporated in the fluphenazine patch
Excerpt: as §1
Objective - To block contact dermatitis observed following application of fluphenazine patches to the skin through incorporation of fluocinonide in the patch. Materials - One formulation of the anti-psychotic drug fluphenazine was used in which either 0%, 1% or 5% fluocononide was incorporated. Thus, the following formulations were prepared: […]
Methods - Three patches containing fluphenazine and fluocinonide at either 0%, 1% or 5% of fluocinonide were applied to the upper arm of a single human subject previously sensitized to fluphenazine. The patches were removed at 48 hours and the sites observed for signs of allergic dermatitis immediately and at 72 and 96 hours. […]

[3] = test system: human subject previously sensitized to clonidine; assay: Contact allergic dermatitis to clonidine patches with incorporated fluocinonide, sensitized subject; assay type: in vivo; conditions: 2% fluocinonide incorporated in the clonidine patch
Excerpt: as §1
(§2) Objective - To block the contact allergic dermatitis which occurs following application of clonidine patches to the skin through incorporation of fluocinonide in the patches. Materials - One formulation of the anti-hypertensive drug clonidine was used in which either 0% or 2% fluocinonide was incorporated. A second formulation containing no clonidine was also tested. Thus, the following formulations were prepared: […]
Methods - Two patches containing clonidine and either 0% or 2% fluocinonide were applied to the upper back of a single human subject previously sensitized to clonidine. A third patch containing no clonidine and no fluocinonide was also applied as a placebo. The patches were removed after 7 days and the sites read immediately and on the 8th day as well. […]

[4] = test system: human subject previously sensitized to trifluoperazine; assay: Contact allergic dermatitis to trifluoperazine patches with incorporated fluocinonide, sensitized subject; assay type: in vivo; conditions: 2% fluocinonide incorporated in the trifluoperazine patch
Excerpt: as §1
as §2, with “trifluoperazine” for “clonidine”, “through the” for “through”, “tranquilizer” for “anti-hypertensive”, “incorporated.” for “incorporated. A second formulation containing no clonidine was also tested.”
Methods - Two patches containing trifluoperazine and either 0% or 2% fluocinonide were applied to the upper arm of a single human subject previously sensitized to trifluoperazine. The patches were removed after two days and the sites read immediately and 24 and 48 hours later as well. […]

human subject [5] = assay: Contact irritant dermatitis to guanfacine patches with incorporated hydrocortisone; assay type: in vivo; conditions: 23 hour and 1 week observation
Excerpt: as §1
Objective - To block the contact irritant dermatitis observed following application of guanfacine patches to the skin through the incorporation of hydrocortisone in the patch. Materials - Two formulations of the antihypertensive drug guanfacine were used in this study. Into each was incorporated hydrocortisone at either 0.5% or 2.0%. Control patches containing no hydrocortisone were also used. Thus, the following formulations were prepared: […]
(To make the 0.5% hydrocortisone formulations, 20 mg hydrocortisone was added to 4 grams of the above formulations. To make 2.0% hydrocortisone formulations, 80 mg of hydrocortisone was added to 4 grams of the above two formulations). Methods - Three patches of each of the two guanfacine formulations, containing either 0%, 0.5% or 2.0% hydrocortisone, were applied to the upper arm of a single human subject not previously exposed to this drug. The patches were removed after 23 hours and the sites observed for signs of dermatitis. One week later, the sites were again observed.

## COc1cc(-c2nc3ncccc3o2)cc(C(C)(C)C)c1 [2-(3-(1,1-dimethylethyl)5-methoxyphenyl-oxazolo(4,5-b)pyridine]
Guinea pig skin
  inhibiting ultra-violet light-induced erythema: as potent as indomethacin
Rat footpad
  analgesic effect: effective analgesic
cyclooxygenase
  cyclooxygenase inhibition: inhibitor
Prostaglandin E2
  inhibition of prostaglandin E2 synthesis: inhibitor
Leukotriene C4
  inhibition of leukotriene C4 synthesis: not

## CC(=O)OCC(=O)[C@@]12OC(C)(C)O[C@@H]1C[C@H]1[C@@H]3C[C@H](F)C4=CC(=O)C=C[C@]4(C)[C@@]3(F)[C@@H](O)C[C@@]12C [fluocinonide]
Human subject [1]
  irritant dermatitis associated with the use of RO 22-1327: significant reduction
[2]
  allergic reaction (erythema and blistering) caused by fluphenazine: almost completely blocked
[3]
  allergic reaction (erythema and blistering) caused by clonidine: significantly reduced
[4]
  magnitude of the allergic reaction (erythema and blistering) caused by trifluoperazine: significantly reduced

## C[C@]12CCC(=O)C=C1CC[C@@H]1[C@@H]2[C@@H](O)C[C@@]2(C)[C@H]1CC[C@]2(O)C(=O)CO [hydrocortisone]
Human subject [5]; 0.5% hydrocortisone guanfacine patches
  adverse reactions (irritant dermatitis): variable
Human subject [5]; 2.0% hydrocortisone guanfacine patches
  adverse reactions (irritant dermatitis): No adverse reactions
